Reference: US12503425B2, “Methods of treating or controlling cytotoxic cerebral edema” (Aeromics, Inc., priority 2012, dated 2025)

How the values were obtained:
cerebral edema [1] = assay: Mouse water toxicity model, brain volume by MRI; details: 0.76 mg/kg, versus no drug
Method: The first time point at 5.67 min coincides with the scan slice at the middle of the brain during the first post-injection scan. Other time points are placed in a similar manner. The data is fitted to a single exponential equation: V/V0=Vi+dVmax(1−e^(−kt)); • where V/V0=relative brain volume, Vi=initial relative brain volume, dVmax=maximum change in relative brain volume, k=first order rate constant (min^−1), and t=time in minutes.
Mouse Water Toxicity Model-Brain Volume by Magnetic Resonance Imaging (MRI): MRI is used to measure changes in brain volume in response to water shock, using the water toxicity model. As described for the survival and brain water content studies above, mice are injected, IP, with a water bolus alone or water bolus and test compound at 0.76 mg/kg, and changes in brain volume as detected by MRI are monitored. […] This imaging method is found to provide sufficient contrast and resolution to sensitively detect changes in total brain volume in the mouse water toxicity model for cerebral edema. […] The cross sectional area of the brain in each imaging slice is measured by manual region-of-interest selection using ImageJ. Brain volumes are then calculated for each scan by summing the individual cross sectional brain areas and multiplying by the slice thickness (0.7 mm).

cerebral edema [2] = assay: Mouse water toxicity model, brain water content; type: in vivo; details: at 30 minutes
Method: Mouse Water Toxicity Model-Brain Water Content: Compounds are also tested for the ability to reduce CE in mice exposed to the water shock by examining brain water content. Mice are treated with a water bolus as described above, then sacrificed at 30 minutes. Brain water content is assessed by fresh/dry weight ratio, i.e. the brains are weighed immediately then desiccated in an oven at 100° C. for 24 h and dry weights measured (brain water percentage=[…]).

[3] = Bioconversion of Compound 5 to Compound 1 in mouse plasma in vitro; type: in vitro ADME; details: 20° C.
[4] = test system: middle cerebral artery occlusion (MCAo); assay: Mouse MCAo stroke model, neurological outcome (5 point scale); type: in vivo; details: 5 mg/kg i.p. every three hours
Text: An improvement in neurological outcome is observed for animals given Compound 5. Control animals have an average neurological score of 2.77±0.66, while animals given Compound 5 have an average score of 0.88±0.31 (FIG. 13, inset, P=0.025, n=9 per treatment).

AQP = AQP inhibition cell-based assay (Table 1)

## O=C(Nc1cc(C(F)(F)F)cc(C(F)(F)F)c1)c1cc(Cl)ccc1O [Compound 1]
other
  detection in plasma samples from mice injected IP with Compound 5: undetectable
Cerebral edema [1]
  reduction of the rate of CE development: 2.5 fold
Cerebral edema [2]; 0.76 mg/kg
  reduction in CE (brain water content): 11.2%
Cerebral edema [2]; 7.6 mg/kg
  reduction in CE (brain water content): 15.9%

## O=C(Nc1cc(C(F)(F)F)cc(C(F)(F)F)c1)c1cc(Cl)ccc1OP(=O)(O)O [Compound 5]
[3]
  time sufficient to render Compound 5 undetectable: Less than 5 minutes
[4]
  progression of neurological state (in words): did not progress into a state of severe paralysis or death

## O=C(Nc1ccccc1)c1ccccc1 [Phenylbenzamide]
AQP
  AQP inhibition Cell-Based Assay (%): 4.5%
